In ChEMBL document CHEMBL5291721, “A preclinical secondary pharmacology resource illuminates target-adverse drug reaction associations of marketed drugs” (Nat Commun, 2023):

Columns and labels:
Estrogen receptor = target: T1, Estrogen receptor (Homo sapiens, UniProt P03372)
T1 sequence (P03372 whole entry): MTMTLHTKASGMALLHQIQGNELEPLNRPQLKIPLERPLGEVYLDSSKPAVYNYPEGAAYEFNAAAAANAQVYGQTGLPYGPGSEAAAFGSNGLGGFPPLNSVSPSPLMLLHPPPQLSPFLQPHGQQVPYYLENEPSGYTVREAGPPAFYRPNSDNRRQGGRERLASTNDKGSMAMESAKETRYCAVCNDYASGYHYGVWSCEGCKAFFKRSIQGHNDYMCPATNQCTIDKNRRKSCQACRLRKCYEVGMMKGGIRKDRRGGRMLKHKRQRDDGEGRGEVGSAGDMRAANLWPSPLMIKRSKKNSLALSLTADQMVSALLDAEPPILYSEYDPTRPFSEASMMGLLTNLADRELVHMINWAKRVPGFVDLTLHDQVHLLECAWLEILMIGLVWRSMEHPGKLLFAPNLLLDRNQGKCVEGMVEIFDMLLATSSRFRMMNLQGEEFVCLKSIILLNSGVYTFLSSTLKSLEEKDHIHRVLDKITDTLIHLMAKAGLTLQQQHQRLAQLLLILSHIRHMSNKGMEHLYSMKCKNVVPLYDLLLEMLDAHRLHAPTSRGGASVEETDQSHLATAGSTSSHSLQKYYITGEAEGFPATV

[1] = target: Vascular endothelial growth factor receptor 2 (Homo sapiens, UniProt P35968); type: functional
Note: assay procedure not described here.

Sequence of Vascular endothelial growth factor receptor 2 (P35968 whole entry): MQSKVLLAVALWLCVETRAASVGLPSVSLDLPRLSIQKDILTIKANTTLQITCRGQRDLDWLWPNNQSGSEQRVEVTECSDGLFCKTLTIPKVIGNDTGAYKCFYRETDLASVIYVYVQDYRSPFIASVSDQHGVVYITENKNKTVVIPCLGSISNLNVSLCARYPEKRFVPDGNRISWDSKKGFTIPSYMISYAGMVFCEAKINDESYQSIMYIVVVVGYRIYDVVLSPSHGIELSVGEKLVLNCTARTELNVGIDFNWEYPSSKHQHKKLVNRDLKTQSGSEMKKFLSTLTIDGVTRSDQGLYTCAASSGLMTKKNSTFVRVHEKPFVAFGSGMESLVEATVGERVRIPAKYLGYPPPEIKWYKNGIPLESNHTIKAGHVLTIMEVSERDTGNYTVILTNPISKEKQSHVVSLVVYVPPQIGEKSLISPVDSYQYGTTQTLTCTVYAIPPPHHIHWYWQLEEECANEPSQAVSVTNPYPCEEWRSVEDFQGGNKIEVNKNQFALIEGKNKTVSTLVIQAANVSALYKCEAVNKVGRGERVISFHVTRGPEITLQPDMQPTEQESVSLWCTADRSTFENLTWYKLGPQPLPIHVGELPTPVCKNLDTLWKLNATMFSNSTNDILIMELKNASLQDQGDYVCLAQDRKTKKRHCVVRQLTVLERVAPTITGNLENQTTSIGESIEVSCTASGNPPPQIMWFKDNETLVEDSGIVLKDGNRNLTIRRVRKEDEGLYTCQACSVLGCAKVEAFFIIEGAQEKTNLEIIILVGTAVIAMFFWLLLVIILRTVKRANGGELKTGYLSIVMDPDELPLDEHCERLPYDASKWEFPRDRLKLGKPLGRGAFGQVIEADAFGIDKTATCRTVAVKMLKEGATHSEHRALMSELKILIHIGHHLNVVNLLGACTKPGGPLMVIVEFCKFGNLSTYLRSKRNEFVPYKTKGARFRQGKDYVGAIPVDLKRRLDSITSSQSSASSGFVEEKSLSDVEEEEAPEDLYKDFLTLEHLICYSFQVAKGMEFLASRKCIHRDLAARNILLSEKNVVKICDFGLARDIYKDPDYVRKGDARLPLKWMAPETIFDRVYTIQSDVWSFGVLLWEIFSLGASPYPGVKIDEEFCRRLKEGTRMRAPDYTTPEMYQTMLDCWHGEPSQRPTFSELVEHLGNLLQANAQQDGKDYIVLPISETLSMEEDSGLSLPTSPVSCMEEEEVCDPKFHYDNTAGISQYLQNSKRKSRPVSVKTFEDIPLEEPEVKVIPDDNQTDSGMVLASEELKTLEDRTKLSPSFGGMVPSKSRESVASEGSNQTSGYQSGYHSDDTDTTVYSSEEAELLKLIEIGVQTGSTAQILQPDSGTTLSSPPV

| SMILES | AC50 (Estrogen receptor) [µM] | AC50 [1] [µM] |
| --- | --- | --- |
| N#Cc1ccc2c(c1)N(CCCN1CCC(O)CC1)c1ccccc1S2 [PERICIAZINE] | > 30 | – |
| OC[C@H]1O[C@@H](c2ccc(F)c(Cc3cc4ccccc4s3)c2)[C@H](O)[C@@H](O)[C@@H]1O [IPRAGLIFLOZIN] | > 30 | – |
| CN1CCC(=C2c3ccccc3Sc3ccccc32)CC1 [PIMETHIXENE] | > 30 | > 30 |
| O=C(O)COc1ccc(C(=O)c2cccs2)c(Cl)c1Cl | > 30 | > 30 |
| C[C@]1(Cn2ccnn2)[C@H](C(=O)O)N2C(=O)C[C@H]2S1(=O)=O [TAZOBACTAM] | > 30 | > 30 |
| FC(F)(F)c1ccc(CNc2ccc(Cc3c[nH]c4ncc(Cl)cc34)cn2)cn1 [PEXIDARTINIB] | > 30 | 0.131 |
| [H]/N=C(\N/C(=N/[H])Nc1ccc(Cl)cc1)NC(C)C [PROGUANIL] | > 30 | > 30 |
| C[C@H]1O[C@@H](n2cc(F)c(=O)[nH]c2=O)[C@H](O)[C@@H]1O [DOXIFLURIDINE] | – | > 30 |
| CC(=O)Oc1cc(C(F)(F)F)ccc1C(=O)O [TRIFLUSAL] | – | > 30 |
| N[C@@H](CS)C(=O)O [CYSTEINE] | – | > 30 |
| CCn1cc(C(=O)O)c(=O)c2cc3c(cc21)OCO3 [OXOLINIC ACID] | – | > 30 |
| CC(C)C[C@H](NC(=O)CNC(=O)c1cc(Cl)ccc1Cl)B(O)O [IXAZOMIB] | > 30 | > 30 |
| O=C(O)c1cc(/N=N/c2ccc(O)c(C(=O)O)c2)ccc1O [OLSALAZINE] | > 30 | 12.3 |
| O=C1/C(=C2\Nc3ccc(S(=O)(=O)O)cc3C2=O)Nc2ccc(S(=O)(=O)O)cc21 [INDIGOTINDISULFONATE] | – | 3.05 |
| CC[C@H](c1ccc(O)cc1)[C@@H](CC)c1ccc(O)cc1 [HEXESTROL] | 0.0252 | > 30 |
| C/C=C/C/C=C/CCC(=O)[C@H]1O[C@H]1C(N)=O [CERULENIN] | > 30 | > 30 |
| Nc1ccc(C(=O)Oc2ccccc2)c(O)c1 [PHENYL AMINOSALICYLATE] | > 30 | 23.2 |
| CCc1nc(C(N)=O)c(Nc2ccc(N3CCC(N4CCN(C)CC4)CC3)c(OC)c2)nc1NC1CCOCC1 [GILTERITINIB] | > 30 | – |
| COc1c2ccoc2cc2oc(=O)ccc12 [BERGAPTEN] | > 30 | > 30 |
